This is an account of results in US10125101B2, “Indanylaminopyridylcyclopropanecarboxylic acids, pharmaceutical compositions and uses thereof” (Boehringer Ingelheim International GmbH, priority 2016, dated 2018).

Each structure is given as a SMILES string. Converted amounts (≈) assume the structure as drawn. Read-outs that look alike come from different tables or passages of the source.

One series can be described thus: Aqueous solubility. To be noted: buffer pH 2.2, 24 h shaking, 2.5% DMSO; for solubility at 24 h: aqueous buffer, kinetic from dmso stock. Type of series: physicochemical. The protocol: Starting from a 10 mM DMSO stock solution aliquots are diluted with acetonitrile/water (1/1) or buffer, respectively. After 24 h of shaking, the solutions are filtrated and analyzed by LC-UV. The amount dissolved in buffer is compared to the amount in the acetonitrile solution.

The target of another series is human GPR40 receptor (Homo sapiens (Human), UniProt O14842). Description: IP1 accumulation measurements using the IPOne assay system. Type of series: cell-based. How it is done: IP1 accumulation measurements using the IPOne assay system—1321N1 cells stably expressing human GPR40 receptor (Euroscreen, Belgium) are seeded 24 h before the assay in white 384-well plates in culture medium containing 10% FCS, 1% Na-Pyruvate and 400 μg/mL G418. IP1 is assayed according to the manufacturer's description (Cisbio Bioassays, France). In brief, the assay is started by substitution of the culture medium by stimulation buffer (Hepes 10 mM, CaCl2 1 mM, MgCl2 0.5 mM, KCl 4.2 mM, NaCl 146 mM, glucose 5.5 mM and LiCl 50 mM, pH 7.4). Cells are stimulated for 1 h at 37° C., 5% CO2 by addition of the compounds that are diluted in stimulation buffer containing LiCl. Assays are stopped by adding HTRF-conjugates (IP1-d2 and Anti-IP1 cryptate Tb) and lysis buffer, provided by the manufacturer. After an incubation time of 1 h at room temperature plates are measured using an EnVision™, Perkin Elmer. The obtained fluorescence ratios at 665/615 […] are then used to calculate the pEC50 values using Assay Explorer 3.3 Software (Accelrys, Inc.) by interpolation using an IP1 reference curve and subsequent sigmoidal curve fitting allowing for a variable hill slope.
Sequence of human GPR40 receptor (O14842 whole entry): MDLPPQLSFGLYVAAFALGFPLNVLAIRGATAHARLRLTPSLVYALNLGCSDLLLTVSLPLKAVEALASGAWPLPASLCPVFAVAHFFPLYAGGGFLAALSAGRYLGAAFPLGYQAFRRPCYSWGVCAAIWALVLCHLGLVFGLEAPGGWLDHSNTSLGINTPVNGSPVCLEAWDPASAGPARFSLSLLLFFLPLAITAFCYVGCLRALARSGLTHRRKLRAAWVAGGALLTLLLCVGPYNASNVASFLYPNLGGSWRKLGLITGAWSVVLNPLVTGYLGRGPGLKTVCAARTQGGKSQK

Series [1] concerns the target cytochrome P450 2C9-isoenzyme (Homo sapiens (Human), UniProt P11712). In words: Inhibition of CYP-2C9 (diclofenac hydroxylation, human liver microsomes). Type of series: in vitro ADME. To be noted: diclofenac 10 μM, 37° C. The protocol: (§1) All assays are carried out on a robotic system in 96 well plates. The final incubation volume contains TRIS buffer (0.1 M), MgCl2 (5 mM), human liver microsomes (0.1 mg/mL), diclofenac (10 μM) and the test compound at five different concentrations or no compound (high control) in duplicate (e.g., highest concentration 10-50 μM with subsequent serial 1:4 dilutions). Following a short preincubation period, reactions are started with the cofactor (NADPH, 1 mM) and stopped by cooling the incubation down to 8° C. and subsequently by addition of one volume of acetonitrile. An internal standard solution—the stable isotope ^13C6-hydroxydiclofenac—is added after quenching of incubations. Peak area analyte (=metabolite formed) and internal standard is determined by LC-MS/MS. The resulting peak area ratio analyte to internal standard in these incubations is compared to a control activity containing no test compound. Within each of the assay runs, the IC50 of a positive control inhibitor (sulfaphenazole) is determined.

Series [2] concerns the target cytochrome P450 2C8-isoenzyme (Homo sapiens (Human), UniProt P10632). Description: Inhibition of CYP-2C8 (amodiaquine deethylation, human liver microsomes). The series is classed as in vitro ADME. To be noted: amodiaquine 1 μM, 37° C. The protocol: as §1, with “microsomes (0.05” for “microsomes (0.1”, “mg/mL), amodiaquine (1” for “mg/mL), diclofenac (10”, “duplicate (e.g.” for “duplicate (e.g.,”, “isotope d5-desethylamodiaquine—is” for “isotope ^13C6-hydroxydiclofenac—is”, “inhibitor (Montelukast)” for “inhibitor (sulfaphenazole)”

The mark [3] stands for this setting: 1321N1 cells stably expressing human GPR40, 1 h stimulation, read-out: EC50.
Setting [4] is: head-to-head compilation, given as IC50, values equal the EC50 of Table 2, read-out: GPR40: IC50.

Sequence of cytochrome P450 2C8-isoenzyme (P10632 whole entry): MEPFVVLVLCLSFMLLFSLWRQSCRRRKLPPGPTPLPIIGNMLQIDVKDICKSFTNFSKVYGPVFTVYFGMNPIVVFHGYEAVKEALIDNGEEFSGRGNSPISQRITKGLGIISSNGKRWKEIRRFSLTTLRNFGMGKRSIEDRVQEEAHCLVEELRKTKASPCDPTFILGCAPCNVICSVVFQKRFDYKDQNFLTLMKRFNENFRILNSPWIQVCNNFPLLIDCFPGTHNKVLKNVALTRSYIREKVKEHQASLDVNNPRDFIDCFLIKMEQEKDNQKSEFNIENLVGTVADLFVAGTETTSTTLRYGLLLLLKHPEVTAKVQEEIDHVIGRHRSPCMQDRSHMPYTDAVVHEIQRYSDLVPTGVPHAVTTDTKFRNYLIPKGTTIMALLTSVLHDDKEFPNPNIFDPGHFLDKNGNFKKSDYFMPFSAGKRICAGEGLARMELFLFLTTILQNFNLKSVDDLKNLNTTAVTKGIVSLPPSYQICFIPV
Sequence of cytochrome P450 2C9-isoenzyme (P11712 whole entry): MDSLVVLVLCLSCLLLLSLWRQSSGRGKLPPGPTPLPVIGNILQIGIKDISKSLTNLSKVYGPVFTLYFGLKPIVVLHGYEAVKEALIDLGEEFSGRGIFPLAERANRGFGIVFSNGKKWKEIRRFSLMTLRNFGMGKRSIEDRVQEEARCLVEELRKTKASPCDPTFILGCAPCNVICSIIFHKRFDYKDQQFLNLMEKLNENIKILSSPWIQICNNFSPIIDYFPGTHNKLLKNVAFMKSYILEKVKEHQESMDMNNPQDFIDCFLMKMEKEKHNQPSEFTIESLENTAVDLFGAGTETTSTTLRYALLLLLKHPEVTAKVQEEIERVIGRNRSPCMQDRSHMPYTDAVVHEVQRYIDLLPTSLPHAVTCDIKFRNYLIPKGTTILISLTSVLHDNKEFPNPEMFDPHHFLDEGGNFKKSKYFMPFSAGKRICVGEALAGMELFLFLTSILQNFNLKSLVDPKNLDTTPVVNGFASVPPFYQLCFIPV

With `N#CC1(c2ccccc2-c2ccc(F)c3c2CC[C@H]3Nc2ccc([C@H]3C[C@@H]3C(=O)O)nc2)CC1` (mixture of isomers) [Example 25], the “Solubility at pH value 2.2” value in the series “Aqueous solubility” worked out at 110 μg/mL. Moreover, the EC50 at human GPR40 receptor (setting [3]) came to 0.344 µM. Further, the IC50 amounted to 40 µM in series [1] and 49 µM in series [2].

Regarding `Cc1cc(O[C@H]2CCOC2)cc(C)c1-c1ccc(F)c2c1CC[C@H]2Nc1ccc([C@H]2C[C@@H]2C(=O)O)nc1` (mixture of isomers) [Example 33], the “Solubility at pH value 2.2” value in the series “Aqueous solubility” turned out to be 103 μg/mL. In addition, the EC50 at human GPR40 receptor (setting [3]) came out at 0.012 µM. The IC50 is more than 50 µM in series [1] and 40 µM in series [2].

As for `Cc1cc(OCCC(C)(C)O)cc(C)c1-c1ccc(F)c2c1CC[C@H]2Nc1ccc(C2C[C@@H]2C(=O)O)nc1` (stereo partly drawn) [Example 1, trans-2-(5-{(R)-7-Fluoro-4-[4-(3-hydroxy-3-methyl-butoxy)-2,6-dimethyl-phenyl]-indan-1-ylamino}-pyridin-2-yl)-cyclopropanecarboxylic acid], the EC50 on human GPR40 receptor (setting [3]) worked out at 0.011 µM.

As to `Cc1cc(OCCC(C)(C)O)cc(C)c1-c1ccc(F)c2c1CC[C@H]2Nc1ccc([C@H]2C[C@@H]2C(=O)O)nc1` [Example 2, (1S,2S)-2-(5-{(R)-7-Fluoro-4-[4-(3-hydroxy-3-methyl-butoxy)-2,6-dimethyl-phenyl]-indan-1-ylamino}-pyridin-2-yl)-cyclopropanecarboxylic acid], the solubility at 24 h in the series “Aqueous solubility” worked out at 100 µg/mL (≈ 193 µM). In addition, the EC50 on human GPR40 receptor (setting [3]) and on human GPR40 receptor (setting [4]) was 0.004 µM throughout. For the same molecule, the IC50 in series [1] was more than 50 µM; in series [2], 20 µM.

Turning to `Cc1cc(OCCC(C)(C)O)cc(C)c1-c1ccc(F)c2c1CC[C@H]2Nc1ccc([C@@H]2C[C@H]2C(=O)O)nc1` [Example 3, (1R,2R)-2-(5-{(R)-7-Fluoro-4-[4-(3-hydroxy-3-methyl-butoxy)-2,6-dimethyl-phenyl]-indan-1-ylamino}-pyridin-2-yl)-cyclopropanecarboxylic acid], on human GPR40 receptor (setting [3]), the EC50 turned out to be 0.107 µM.

Consider `Cc1cc(OCCCS(C)(=O)=O)cc(C)c1-c1ccc(F)c2c1CC[C@H]2Nc1ccc([C@H]2C[C@@H]2C(=O)O)nc1` [Example 4, (1S,2S)-2-(5-{(R)-7-Fluoro-4-[4-(3-methanesulfonyl-propoxy)-2,6-dimethyl-phenyl]-indan-1-ylamino}-pyridin-2-yl)-cyclopropanecarboxylic acid], for which the solubility at 24 h in “Aqueous solubility” came to 97 µg/mL (≈ 176 µM). In addition, the EC50 on human GPR40 receptor (setting [3]) and at human GPR40 receptor (setting [4]) was 0.007 µM throughout. The half-maximal inhibitory concentration (IC50) in series [1] and in series [2] was more than 50 µM throughout.

Consider `Cc1cc(-c2nnn(C)n2)cc(C)c1-c1cccc2c1CC[C@H]2Nc1ccc([C@H]2C[C@@H]2C(=O)O)nc1` [Example 6, (1S,2S)-2-(5-{(R)-4-[2,6-Dimethyl-4-(2-methyl-2H-tetrazol-5-yl)-phenyl]-indan-1-ylamino}-pyridin-2-yl)-cyclopropanecarboxylic acid], for which the solubility at 24 h in the series “Aqueous solubility” came to 68 µg/mL (≈ 141 µM). The EC50 at human GPR40 receptor (setting [3]) turned out to be 0.003 µM. Besides, the half-maximal inhibitory concentration (IC50) is more than 50 µM in series [1] and 29 µM in series [2].

As to `Cc1cc(OCCC(C)(C)O)cc(C)c1-c1cccc2c1CC[C@H]2Nc1ccc([C@H]2C[C@@H]2C(=O)O)nc1` [Example 7, (1S,2S)-2-(5-{(R)-4-[4-(3-Hydroxy-3-methyl-butoxy)-2,6-dimethyl-phenyl]-indan-1-ylamino}-pyridin-2-yl)-cyclopropanecarboxylic acid], the solubility at 24 h in “Aqueous solubility” stood at 84 µg/mL (≈ 168 µM). Besides, the EC50 on human GPR40 receptor (setting [3]) was 0.005 µM. The IC50 in series [1] and in series [2] was more than 50 µM each time.

Molecule `COc1ccc(-c2cccc3c2CC[C@H]3Nc2ccc([C@H]3C[C@@H]3C(=O)O)nc2)cc1F` [Example 8, (1S,2S)-2-{5-[(R)-4-(3-Fluoro-4-methoxy-phenyl)-indan-1-ylamino]-pyridin-2-yl}-cyclopropanecarboxylic acid] had a solubility at 24 h in “Aqueous solubility” of 62 µg/mL (≈ 148 µM). Further, the EC50 on human GPR40 receptor (setting [3]) amounted to 0.1 µM. Also, the IC50 in series [1] and in series [2] was more than 50 µM throughout.

Regarding `COc1cnc(-c2ccc(-c3cccc4c3CC[C@H]4Nc3ccc([C@H]4C[C@@H]4C(=O)O)nc3)cc2)cn1` [Example 9, (1S,2S)-2-(5-{(R)-4-[4-(5-Methoxy-pyrazin-2-yl)-phenyl]-indan-1-ylamino}-pyridin-2-yl)-cyclopropanecarboxylic acid], the solubility at 24 h in “Aqueous solubility” is less than 1 µg/mL. The EC50 on human GPR40 receptor (setting [3]) was found to be 0.024 µM. For the same molecule, the IC50 was more than 50 µM in series [1] and 20 µM in series [2].

For the molecule `Cc1nnc(-c2ccc(-c3cccc4c3CC[C@H]4Nc3ccc([C@H]4C[C@@H]4C(=O)O)nc3)cc2)o1` [Example 10, (1S,2S)-2-(5-{(R)-4-[4-(5-Methyl-[1,3,4]oxadiazol-2-yl)-phenyl]-indan-1-ylamino}-pyridin-2-yl)-cyclopropanecarboxylic acid], the EC50 at human GPR40 receptor (setting [3]) is 0.146 µM.

On to `Cc1cc(OCCCS(C)(=O)=O)cc(C)c1-c1ccc(F)c2c1CC[C@H]2Oc1ccc([C@H]2C[C@@H]2C(=O)O)nc1` [Example 11 in WO 2013/178575, reference compound], for which the EC50 at human GPR40 receptor (setting [4]) came out at 0.008 µM. In addition, the IC50 in series [1] stood at 17 µM; in series [2], 12 µM.

Regarding `Cc1cc(C(N)=O)cc(C)c1-c1ccc(F)c2c1CC[C@H]2Nc1ccc([C@H]2C[C@@H]2C(=O)O)nc1` [Example 11], the “Solubility at pH value 2.2” value in the series “Aqueous solubility” is given as more than 120 μg/mL. The EC50 on human GPR40 receptor (setting [3]) came to 0.03 µM. Moreover, the IC50 in series [1] and in series [2] was more than 50 µM throughout.

Take `Cc1cc(O[C@@H]2CCOC2)cc(C)c1-c1ccc(F)c2c1CC[C@H]2Nc1ccc([C@H]2C[C@@H]2C(=O)O)nc1` [Example 12]: the “Solubility at pH value 2.2” value in “Aqueous solubility” is on record as 105 μg/mL. The EC50 on human GPR40 receptor (setting [3]) was determined as 0.01 µM. Also, the values for the half-inhibitory concentration (IC50) in series [1] and in series [2] were more than 50 µM and 30 µM, respectively.

As for `Cc1cc(CO)cc(C)c1-c1ccc(F)c2c1CC[C@H]2Nc1ccc([C@H]2C[C@@H]2C(=O)O)nc1` [Example 13], in “Aqueous solubility”, the “Solubility at pH value 2.2” value is on record as 105 μg/mL. The EC50 at human GPR40 receptor (setting [3]) turned out to be 0.025 µM. Besides, the IC50 was more than 50 µM in series [1] and 40 µM in series [2].

As for `Cc1cc(C(=O)NCC(C)(C)O)cc(C)c1-c1ccc(F)c2c1CC[C@H]2Oc1ccc([C@H]2C[C@@H]2C(=O)O)cc1` [Example 15 in WO 2013/178575, reference compound], the solubility at 24 h in the series “Aqueous solubility” is less than 1 µg/mL. Besides, the figures for the IC50 in series [1] and in series [2] were 31 µM and 10 µM, respectively.

For `Cc1cc(OCC2(C)COC2)cc(C)c1-c1ccc(F)c2c1CC[C@H]2Nc1ccc([C@H]2C[C@@H]2C(=O)O)nc1` [Example 15], in the series “Aqueous solubility”, the “Solubility at pH value 2.2” value was 120 μg/mL. For the same molecule, the EC50 on human GPR40 receptor (setting [3]) was 0.008 µM. For the same molecule, the half-inhibitory concentration (IC50) is more than 50 µM in series [1] and 32 µM in series [2].

Turning to `Cc1cc(-c2nnn(C)n2)cc(C)c1-c1ccc(F)c2c1CC[C@H]2Nc1ccc([C@H]2C[C@@H]2C(=O)O)nc1` [Example 30], the EC50 at human GPR40 receptor (setting [3]) was 0.003 µM. Moreover, the results for the half-inhibitory concentration (IC50) in series [1] and in series [2] were more than 50 µM and 20 µM, respectively.

Take `Cc1cccc(C)c1-c1ccc(F)c2c1CC[C@H]2Oc1ccc(C2CC2C(=O)O)cc1` (stereo partly shown) [Example 33 in WO 2013/178575, reference compound]: the results for the IC50 in series [1] and in series [2] were 7 µM and 5 µM, respectively.

Molecule `Cc1c(C#N)cccc1-c1ccc(F)c2c1CC[C@H]2Oc1ccc([C@H]2C[C@@H]2C(=O)O)cc1` [Example 54 in WO 2013/178575, reference compound] had a solubility at 24 h in the series “Aqueous solubility” of less than 1 µg/mL. Further, the IC50 in series [1] turned out to be 10 µM; in series [2], 9 µM.
